Results taken from US20230074252A1, “DOSAGES AND METHODS FOR TREATING PULMONARY ARTERIAL HYPERTENSION WITH RODATRISTAT” (Altavant Sciences GmbH, priority 2020, published 2023).

Tests used:
[1] = Stability in rat whole blood; assay type: in vitro ADME; conditions: 2 μM, 15 min
Experimental: (§1) The metabolic stability of RVT-1201 was measured in vitro in hepatocytes, liver microsomes, lung microsomes, intestinal S9, lung S9, liver S9 and whole blood. The major metabolite detected in incubations with human hepatocytes was KAR5417 (KRS-02). RVT-1201 was rapidly metabolized to form KAR5417, with <5% remaining after a 2 h incubation. In heat deactivated rat hepatocytes, <5% RVT-1201 remained after 2 h incubation in the same study. Therefore, RVT-1201 metabolism (and KAR5417 formation) are not dependent on oxidative or conjugative enzymatic processes. Formation of KAR5417 from RVT-1201 is a de-esterification process, which implicates an esterase or esterases as the major mechanism. The enzyme(s) responsible for RVT-1201 metabolism to form KAR5417 has not been identified but are considered to be carboxylesterase(s). In addition, RVT-1201 metabolism and KAR5417 formation were investigated in rat and human whole blood(XT184028).

[2] = Biopharmaceutics Classification System class; assay type: physicochemical
Text: RVT-1201 is a Biopharmaceutics Classification System (BCS) Class II or IV molecule with in vitro permeability consistent with oral bioavailability, which has been evaluated in a Phase 1 single ascending dose (SAD)/multiple ascending dose (MAD) study using a simple immediate release (IR) drug-in-capsule formulation (Clinical Study KAR5585-101). The active pharmaceutical ingredient used in this clinical study was polymorph Form 1. An optimized/enhanced oral formulation was developed with a goal to improve patient acceptance, increase the oral bioavailability relative to the IR capsule formulation to facilitate a dose reduction, reduce inter-subject variability and to optimize a formulation process suitable for larger scale manufacture. An oral IR tablet formulation and 2 spray-dried dispersion suspensions using polymorph Form 3 were investigated in a second clinical study (Clinical Study RVT-1201-1001). The purpose of this study was to assess the performance of selected formulations following oral administration to healthy subjects.

[3] = Stability in heat deactivated rat hepatocytes; assay type: in vitro ADME; conditions: 2 h incubation
Experimental: as §1

[4] = Intrinsic clearance in liver S9 fractions; assay type: in vitro ADME; conditions: human, liver S9 fraction
Experimental: as §1
However, in human whole blood incubations, no loss of RVT-1201 was observed. […] Therefore, metabolism of RVT-1201 was assigned to a cytosolic carboxylesterase (CES1) within the PBPK model. Although the enzyme responsible for RVT-1201 elimination and KAR5417 formation has not been identified, CES1 was selected to represent the enzymatic metabolism of RVT-1201 for this fit-for-purpose PBPK model.

[5] = Pro-drug to active ratio in portal versus peripheral blood; assay type: in vivo; conditions: rat
Text: (§2) Calculation of Cmax, u, portal uses plasma Cmax, fraction of an oral dose absorbed (Fa) and measured unbound fraction in blood. For rodatristat, experimentally derived values were used for Fa determined in a rat 14C study (20%) and in vitro binding to human plasma (99.1%) and blood:plasma distribution (RB, 0.72). Walsky et al proposed a threshold where the ratio of Cmax, u, portal/Ki of <0.1 is associated with low risk. […] In the rat, the RE:R is ˜3-fold higher in portal blood compared to the periphery.

[6] = Passive permeability in Caco 2 and MDCK cell studies; assay type: in vitro ADME
Text: (§3) Consequently, the elimination of rodatristat into bile may be impacted by co-administration with agents that are BCRP inhibitors.

[7] = Blood:plasma distribution; assay type: in vitro ADME; conditions: whole blood; read-out: Blood:plasma distribution (RB)
Text: as §2

MATE1 = target: T1, MATE1 (Homo sapiens, UniProt Q96FL8); assay: In vitro transporter substrate assessment; assay type: in vitro ADME
T1 sequence (Q96FL8 1-570): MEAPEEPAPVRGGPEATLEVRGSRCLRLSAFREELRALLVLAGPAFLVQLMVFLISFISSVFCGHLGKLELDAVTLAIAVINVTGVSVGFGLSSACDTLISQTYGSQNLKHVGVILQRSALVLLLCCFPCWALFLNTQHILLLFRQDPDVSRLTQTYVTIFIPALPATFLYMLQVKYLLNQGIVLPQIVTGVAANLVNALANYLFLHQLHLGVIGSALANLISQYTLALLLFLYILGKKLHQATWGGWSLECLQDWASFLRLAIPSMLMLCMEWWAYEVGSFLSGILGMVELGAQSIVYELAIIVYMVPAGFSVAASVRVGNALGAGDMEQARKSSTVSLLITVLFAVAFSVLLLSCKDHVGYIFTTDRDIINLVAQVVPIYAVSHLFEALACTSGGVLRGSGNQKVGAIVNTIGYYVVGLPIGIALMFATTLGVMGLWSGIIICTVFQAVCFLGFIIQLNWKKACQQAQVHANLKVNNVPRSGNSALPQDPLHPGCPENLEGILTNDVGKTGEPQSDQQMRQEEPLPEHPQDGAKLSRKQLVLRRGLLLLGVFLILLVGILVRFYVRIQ
Text: as §3

[8] = Metabolic stability in liver preparations across species; assay type: in vitro ADME
Text: The metabolism of rodatristat ethyl is predominantly by esterase mediated hydrolysis of the ester pro-drug moiety to rodatristat in liver tissue preparations from human, rat, dog, and cynomolgus monkey, and intestinal and lung tissues from rat and human. Hydrolysis of rodatristat ethyl was also observed in rat blood, and to a much lesser extent in dog and human blood.

[9] = Rat 14C study, fraction of oral dose absorbed; assay type: in vivo
Text: as §2

Loss in rat blood [1] | Biopharmaceutics Classification System (BCS) Class [2] | Remaining after incubation in heat deactivated rat hepatocytes [3] [%] | microsomal CLint [4] [µL/min/mg] | RE:R ratio higher in portal blood compared to the periphery [5] [fold] | Passive permeability [6] | blood plasma ratio [7] | In vitro substrate? MATE1 (MATE1) | Metabolic stability in liver preparations [8] | Fraction of an oral dose absorbed (Fa) [9] [%] | Compound
Complete loss | II or IV | < 5 | 20 | ~3 | – | – | – | – | – | CCOC(=O)[C@@H]1CC2(CCN(c3cc(O[C@H](c4ccc(Cl)cc4-c4ccccc4)C(F)(F)F)nc(N)n3)CC2)CN1 [Rodatristat ethyl, (S)-ethyl 8-(2-amino-6-((R)-1-(5-chloro-[1,1′-biphenyl]-2-yl)-2,2,2-trifluoroethoxy)pyrimidin-4-yl)-2,8-diazaspiro[4.5]decane-3-carboxylate]
– | – | – | – | – | very low passive permeability | 0.72 | not an in vitro substrate and No | metabolically stable | 20 | Nc1nc(O[C@H](c2ccc(Cl)cc2-c2ccccc2)C(F)(F)F)cc(N2CCC3(CC2)CN[C@H](C(=O)O)C3)n1 [Rodatristat, (S)-8-(2-amino-6-((R)-1-(5-chloro-[1,1′-biphenyl]-2-yl)-2,2,2-trifluoroeth-oxy)pyrimidin-4-yl)-2,8-diazaspiro[4.5]decane-3-carboxylic acid]
